# Assay results taken from ChEMBL document CHEMBL1139086, “Synthesis, characterization, antibacterial activity, and interaction with DNA of the vanadyl-enrofloxacin complex” (2007).
# Key:
# Type in all cases: functional
# Staphylococcus aureus = test: Antimicrobial activity against Staphylococcus aureus
# Pseudomonas aeruginosa = test: Antimicrobial activity against Pseudomonas aeruginosa
# Escherichia coli = test: Antimicrobial activity against Escherichia coli
smiles,measurement,setting,value
CCN1CCN(c2cc3c(cc2F)c(=O)c(C(=O)O)cn3C2CC2)CC1 [ENROFLOXACIN],MIC,Staphylococcus aureus,8 µg/mL
same,MIC,Pseudomonas aeruginosa,1 µg/mL
same,MIC,Escherichia coli,1 µg/mL
